Data as given in ChEMBL document CHEMBL4765257, “Synthesis and structure-activity relationship study of pyrrolidine-oxadiazoles as anthelmintics against Haemonchus contortus” (Eur J Med Chem, 2020).
≈ marks a conversion by molar mass, not a printed value.

What was measured:
[1] = system: MCF-10A; assay: Cytotoxicity against human MCF-10A cells assessed as inhibition of cell viability measured after 48 hrs by DAPI staining based analysis
[2] = system: Haemonchus contortus; assay: Anti-helmintic activity against fourth stage of Haemonchus contortus larvae assessed as reduction in development of L4 stage incubated for 72 hrs followed by reincubation in humidified environment for 4 days; assay type: functional, organism-based
[3] = system: Haemonchus contortus; assay: Anti-helmintic activity against third-stage Haemonchus contortus larvae assessed as inhibition of xL3 motility measured after 72 hrs; assay type: functional, organism-based
[4] = Cytotoxicity against human MCF-10A cells assessed as inhibition of cell viability at 50 uM measured after 48 hrs by DAPI staining based analysis; details: read-out: INH
[5] = Intrinsic clearence in mouse liver microsomes at 0.5 uM measured upto 60 mins in presence of NADPH measured per mg protein; assay type: ADME, Microsome; details: read-out: CLH
[6] = Kinetic solubility of the compound in 0.01M HCl at pH 2.0 incubated for 30 mins by nephelometry; assay type: physicochemical; details: read-out: Kinetic_solubility
[7] = Kinetic solubility of the compound in phosphate buffer pH 6.5 incubated for 30 mins by nephelometry; assay type: physicochemical; details: read-out: Kinetic_solubility
[8] = Half life in mouse liver microsomes at 0.5 uM measured upto 60 mins in presence of NADPH; assay type: ADME, Microsome
[9] = Half life in human liver microsomes at 0.5 uM measured upto 60 mins in presence of NADPH; assay type: ADME, Microsome
[10] = Intrinsic clearence in human liver microsomes at 0.5 uM measured upto 60 mins in presence of NADPH measured per mg protein; assay type: ADME, Microsome; details: read-out: CLH
[11] = Haemonchus contortus, 72 h, read-out: IC50

| Structure (SMILES) | IC50 [1] [µM] | IC50 [2] [µM] | cytotoxicity at 48 h, 50 µM [4] [%] | IC50 [3, 11] [µM] | further results |
| --- | --- | --- | --- | --- | --- |
| O=C(Nc1ccc(Cl)cc1)N1CCC[C@H]1c1nc(-c2ccc(I)cc2)no1 | > 50 | 50 | 23 | – | IC50 [3]: Active |
| N#Cc1ccc(NC(=O)N2CCC[C@H]2c2nc(-c3ccccc3)no2)cc1 | > 50 | > 100 | 27 | 18 | – |
| O=C(Nc1ccc(Cl)cc1)N1CCC[C@H]1c1nc(-c2ccc(Br)cc2)no1 | > 50 | > 100 | 30 | – | IC50 [3]: Active |
| COc1ccc(-c2noc([C@@H]3CCCN3C(=O)Nc3ccc(Cl)cc3)n2)cc1 | > 50 | > 100 | 13 | 50 | – |
| Cc1ccccc1NC(=O)N1CCC[C@H]1c1nc(-c2ccccc2)no1 | – | > 100 | – | > 100 | – |
| N#Cc1cccc(NC(=O)N2CCC[C@H]2c2nc(-c3ccccc3)no2)c1 | – | > 100 | – | > 100 | – |
| O=C(Nc1ccc(Cl)cc1)N1CCC[C@H]1c1nc(-c2ccccc2)no1 | > 50 | 21 | 7.5 | 5.3 | microsomal CLint at 0.5 µM [5]: 89 µL/min/mg; solubility kinetic at 0.5 h [6]: 1.6 µg/mL (≈ 4.34 µM); solubility kinetic at 0.5 h [7]: 1.6 µg/mL (≈ 4.34 µM); half-life at 0.5 µM [8]: 20 min; half-life at 0.5 µM [9]: 93 min; microsomal CLint at 0.5 µM [10]: 19 µL/min/mg |
| O=C(Nc1ccncc1)N1CCC[C@H]1c1nc(-c2ccccc2)no1 | – | > 100 | – | > 100 | – |
| O=C(Nc1ccc(Cl)cc1)N1CCC[C@@H]1c1nc(-c2ccccc2)no1 | – | > 100 | – | > 100 | – |
| O=C(Nc1ccccc1Br)N1CCC[C@H]1c1nc(-c2ccccc2)no1 | – | > 100 | – | > 100 | – |
| O=C(Nc1ccc(C(F)(F)F)cc1)N1CCC[C@H]1c1nc(-c2ccccc2)no1 | > 50 | 7 | 33 | 9.5 | – |
| O=C(Nc1ccc(Cl)cc1)N1CCC[C@H]1c1nc(-c2ccc(O)cc2)no1 | – | > 100 | – | > 100 | – |
| O=C(Nc1cccnc1)N1CCC[C@H]1c1nc(-c2ccccc2)no1 | – | > 100 | – | > 100 | – |
| O=C(Nc1cccc(Cl)c1)N1CCC[C@H]1c1nc(-c2ccccc2)no1 | – | > 100 | – | > 100 | – |
| Cc1ccc(-c2noc([C@@H]3CCCN3C(=O)Nc3ccc(Cl)cc3)n2)cc1 | > 50 | 50 | 47 | – | IC50 [3]: Active |
| Cc1ccc(NC(=O)N2CCC[C@H]2c2nc(-c3ccccc3)no2)cc1 | – | > 100 | – | > 100 | – |
| O=C(Nc1ccc(Cl)cc1)N1CCCC1c1nc(-c2ccccc2)no1 (configuration not stated) | – | 0.31 | – | 3.46 | – |
| O=C(Nc1ccc(OC(F)(F)F)cc1)N1CCC[C@H]1c1nc(-c2ccccc2)no1 | > 50 | 13 | 18 | 4.2 | – |
| Cc1cccc(NC(=O)N2CCC[C@H]2c2nc(-c3ccccc3)no2)c1 | – | > 100 | – | > 100 | – |
| O=C(Nc1ccccc1O)N1CCC[C@H]1c1nc(-c2ccccc2)no1 | – | > 100 | – | > 100 | – |
| O=C(Nc1ccccc1I)N1CCC[C@H]1c1nc(-c2ccccc2)no1 | – | > 100 | – | > 100 | – |
| COc1ccccc1NC(=O)N1CCC[C@H]1c1nc(-c2ccccc2)no1 | – | > 100 | – | > 100 | – |
| O=C(Nc1cccc(O)c1)N1CCC[C@H]1c1nc(-c2ccccc2)no1 | – | > 100 | – | > 100 | – |
| O=C(Nc1ccc(O)cc1)N1CCC[C@H]1c1nc(-c2ccccc2)no1 | – | > 100 | – | > 100 | – |
| COc1ccc(NC(=O)N2CCC[C@H]2c2nc(-c3ccccc3)no2)cc1 | – | > 100 | – | > 100 | – |
| COc1cccc(-c2noc([C@@H]3CCCN3C(=O)Nc3ccc(Cl)cc3)n2)c1 | – | > 100 | – | > 100 | – |
| CC(=O)c1ccccc1NC(=O)N1CCC[C@H]1c1nc(-c2ccccc2)no1 | – | > 100 | – | > 100 | – |
| O=C(Nc1ccc(F)cc1)N1CCC[C@H]1c1nc(-c2ccccc2)no1 | – | > 100 | – | > 100 | – |
| O=C(Nc1ccc(Br)cc1)N1CCC[C@H]1c1nc(-c2ccccc2)no1 | > 50 | 12 | 20 | 1.8 | – |
